Laboratory results from the supplement of paper PMC10307832.

Compound: CC1=C(C(=O)N2C=CSC2=N1)CCN3CCC(=C(C4=CC=CC=C4)C5=CC=C(C=C5)F)CC3 + CS(=O)(=O)N1CCN(Cc2cc3nc(-c4cccc5[nH]ncc45)nc(N4CCOCC4)c3s2)CC1 [Pictilisib] (partner 1 µM)
Experiment: relative viability (nuclei count vs DMSO), 5 days (fraction); higher = more cells survive
Method in brief: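 Lung cancer cell lines were seeded in 1536-well plates and dosed by pin tool the next day, with either a single drug or a fixed anchor-drug dose combined with five library-drug doses (not always all listed) spaced in √10 steps. Five days later, one step fixed the cells and stained their nuclei (final 0.05% Triton X-100, 1% formaldehyde, 1 ug/ml Hoechst), and nuclei were counted on 4× images. Relative viability is the nuclei count in treated wells divided by the count in vehicle wells, and each value is the median of duplicate plates.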

Cell Line | relative viability (first compound 0.08 µM) | relative viability (first compound 0.253 µM) | relative viability (first compound 0.8 µM) | relative viability (first compound 2.53 µM) | relative viability (first compound 8 µM)
201T | 0.647 | 0.779 | 0.632 | 0.712 | 0.808
A549 | 0.643 | 0.434 | 0.467 | 0.567 | 0.422
A-427 | 0.801 | 0.86 | 0.676 | 0.83 | 0.737
ABC-1 | 0.817 | 0.973 | 0.827 | 0.684 | 0.483
BEN | 0.521 | 0.602 | 0.562 | 0.516 | 0.505
CAL-12T |  | 0.445 | 0.411 | 0.42 | 0.387
COR-L23 | 0.775 | 0.595 | 0.945 | 0.69 | 0.52
COR-L 105 | 0.349 | 0.392 | 0.376 | 0.436 | 0.403
Calu-6 | 0.937 | 0.847 | 0.915 | 1.2 | 0.54
ChaGo-K-1 | 0.976 | 0.593 | 0.476 | 0.937 | 0.604
EBC-1 | 0.343 | 0.37 | 0.29 | 0.355 | 0.366
EKVX | 0.38 | 0.412 | 0.479 | 0.408 | 0.36
EMC-BAC-2 | 0.543 | 0.516 | 0.505 | 0.617 | 0.424
EPLC-272H |  | 0.332 | 0.259 | 0.306 | 0.359
H3255 | 0.448 | 0.389 | 0.515 | 0.537 | 0.4
HARA | 0.527 | 0.423 | 0.383 | 0.202 | 0.289
HCC-15 | 0.714 | 0.752 | 0.714 | 0.773 | 0.587
HCC-44 | 0.532 | 0.643 | 0.587 | 0.573 | 0.581
HCC-78 | 0.216 | 0.206 | 0.226 | 0.212 | 0.273
HCC-366 | 0.128 | 0.152 | 0.194 | 0.129 | 0.121
HCC-827 | 0.829 | 1.07 | 1.13 | 0.924 | 0.645
HOP-62 | 0.891 | 0.72 | 0.827 | 0.745 | 0.611
IA-LM |  | 0.354 | 0.211 | 0.345 | 0.234
LC-2-ad | 0.418 | 0.369 | 0.513 | 0.646 | 0.427
LCLC-97TM1 | 0.208 | 0.297 | 0.217 | 0.182 | 0.167

Cell Line | relative viability (first compound 0.08 µM) | relative viability (first compound 0.253 µM) | relative viability (first compound 0.8 µM) | relative viability (first compound 2.53 µM) | relative viability (first compound 8 µM)
LCLC-103H | 0.884 | 0.636 | 0.449 | 0.618 | 0.566
LK-2 | 0.611 | 0.66 | 0.605 | 0.451 | 0.539
LOU-NH91 | 0.561 | 0.503 | 0.545 | 0.55 | 0.527
LU99A | 0.377 | 0.316 | 0.342 | 0.389 | 0.311
LXF-289 | 0.824 | 0.953 | 0.804 | 0.674 | 0.724
NCI-H23 | 0.473 | 0.39 | 0.443 | 0.497 | 0.374
NCI-H322M | 0.513 | 0.526 | 0.524 | 0.526 | 0.496
NCI-H358 | 0.301 | 0.338 | 0.326 | 0.38 | 0.305
NCI-H441 |  | 0.519 | 0.464 | 0.563 | 0.366
NCI-H460 | 0.326 | 0.329 | 0.329 | 0.366 | 0.209
NCI-H520 | 0.315 | 0.334 | 0.348 | 0.33 | 0.292
NCI-H596 | 0.435 | 0.418 | 0.38 | 0.369 | 0.386
NCI-H647 | 0.552 | 0.385 | 0.381 | 0.498 | 0.312
NCI-H650 |  | 0.763 | 0.786 | 0.99 | 0.71
NCI-H661 | 0.404 | 0.382 | 0.338 | 0.352 | 0.361
NCI-H727 | 0.352 | 0.351 | 0.35 | 0.354 | 0.423
NCI-H838 | 0.439 | 0.489 | 0.466 | 0.58 | 0.444
NCI-H1299 | 1 | 0.906 | 0.754 | 1.05 | 0.575
NCI-H1355 | 0.445 | 0.504 | 0.534 | 0.472 | 0.385
NCI-H1395 | 0.772 | 0.641 | 0.531 | 0.572 | 0.629
NCI-H1437 |  | 0.446 | 0.388 | 0.406 | 0.485
NCI-H1650 | 0.586 | 0.682 | 0.519 | 0.586 | 0.389
NCI-H1651 | 0.621 | 0.676 | 0.51 | 0.684 | 0.495
NCI-H1666 | 0.393 | 0.434 | 0.381 | 0.461 | 0.431
NCI-H1703 | 0.298 | 0.248 | 0.266 | 0.295 | 0.248

Cell Line | relative viability (first compound 0.08 µM) | relative viability (first compound 0.253 µM) | relative viability (first compound 0.8 µM) | relative viability (first compound 2.53 µM) | relative viability (first compound 8 µM)
NCI-H1734 | 0.476 | 0.468 | 0.485 | 0.504 | 0.331
NCI-H1755 | 0.387 | 0.482 | 0.42 | 0.423 | 0.37
NCI-H1792 | 0.241 | 0.257 | 0.251 | 0.232 | 0.308
NCI-H1793 | 0.368 | 0.283 | 0.249 | 0.341 | 0.23
NCI-H1915 | 1.21 | 1.01 | 0.969 | 1.04 | 0.835
NCI-H1944 | 0.369 | 0.336 | 0.343 | 0.333 | 0.37
NCI-H1975 | 0.337 | 0.296 | 0.271 | 0.291 | 0.273
NCI-H1993 | 0.755 |  | 0.766 | 0.727 | 0.73
NCI-H2009 | 1.05 | 0.843 | 0.736 | 0.956 | 0.723
NCI-H2023 | 0.257 | 0.239 | 0.238 | 0.263 | 0.28
NCI-H2085 | 0.449 | 0.462 | 0.45 | 0.442 | 0.409
NCI-H2087 | 0.769 | 0.868 | 0.835 | 0.997 | 0.554
NCI-H2126 | 0.493 | 0.509 | 0.477 | 0.516 | 0.579
NCI-H2170 | 0.295 | 0.287 | 0.256 | 0.304 | 0.338
NCI-H2228 | 0.648 | 0.295 | 0.276 | 0.504 | 0.283
NCI-H2347 | 0.417 | 0.691 | 0.764 | 0.394 | 0.614
NCI-H2405 | 0.426 | 0.432 | 0.481 | 0.531 | 0.347
NCI-H3122 | 0.72 | 0.678 | 0.574 | 0.768 | 0.623
PC-3 [JPC-3] | 0.78 | 0.746 | 0.72 | 0.765 | 0.711
PC-14 | 0.604 | 0.617 | 0.708 | 0.93 | 0.399
RERF-LC-KJ | 0.627 | 0.495 | 0.511 | 0.497 | 0.487
SK-LU-1 | 0.538 | 0.587 | 0.655 | 0.573 | 0.494
SK-MES-1 | 0.386 | 0.396 | 0.357 | 0.33 | 0.261
SW 1573 |  | 0.478 | 0.478 | 0.486 | 0.264
UMC-11 | 0.953 | 0.811 | 0.8 | 1.15 | 0.733
